Test [1] addresses T1, B. fragilis xylose isomerase (SEQ. ID NO: 4) (Bacteroides fragilis, UniProt Q5LCV9).
T1 construct: ID NO: 4 in comparison to its E. coli orthologue
Kind of test: xylitol inhibition of xylose isomerase activity (B. fragilis XI, SEQ. ID NO: 4). The note with it: 12.5 mM xylitol; percent of activity obtained in the absence of xylitol. The test is classed as biochemical. The procedure: (§1) Activity is reported as the percent of activity obtained in the absence of xylitol.
(§2) A distinguishing feature of the B. fragilis isomerases described herein is that enzymes are less inhibited by xylitol than orthologue XI sequences from other organism. […] ID NO: 4 in comparison to its E. coli orthologue. At 12.5 mM xylitol, the E. coli XI activity is >97% inhibited, in contrast to the B. fragilis XI, which retains at least 30% of its activity at the same xylitol concentration.

A further test has as its target E. coli xylose isomerase (Escherichia coli, UniProt P00944). As to the kind of experiment: xylitol inhibition of xylose isomerase activity (E. coli XI). The test is classed as biochemical. To be noted: read-out: E. coli XI activity inhibited. The procedure:
as §1, §2

T1 sequence (Q5LCV9 whole entry, looked up, natural form): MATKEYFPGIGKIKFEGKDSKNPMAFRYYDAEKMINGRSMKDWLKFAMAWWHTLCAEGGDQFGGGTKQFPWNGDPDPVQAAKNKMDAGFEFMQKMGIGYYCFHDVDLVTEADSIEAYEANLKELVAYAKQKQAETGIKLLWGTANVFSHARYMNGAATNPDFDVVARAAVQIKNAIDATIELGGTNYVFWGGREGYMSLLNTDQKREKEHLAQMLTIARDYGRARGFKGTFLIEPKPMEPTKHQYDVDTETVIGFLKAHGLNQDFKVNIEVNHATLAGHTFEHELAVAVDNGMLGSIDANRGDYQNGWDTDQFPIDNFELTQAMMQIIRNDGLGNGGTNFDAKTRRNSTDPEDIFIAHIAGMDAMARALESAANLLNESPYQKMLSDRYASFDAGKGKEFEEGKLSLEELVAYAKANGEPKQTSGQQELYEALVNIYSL
Chain of E. coli xylose isomerase (P00944 whole entry): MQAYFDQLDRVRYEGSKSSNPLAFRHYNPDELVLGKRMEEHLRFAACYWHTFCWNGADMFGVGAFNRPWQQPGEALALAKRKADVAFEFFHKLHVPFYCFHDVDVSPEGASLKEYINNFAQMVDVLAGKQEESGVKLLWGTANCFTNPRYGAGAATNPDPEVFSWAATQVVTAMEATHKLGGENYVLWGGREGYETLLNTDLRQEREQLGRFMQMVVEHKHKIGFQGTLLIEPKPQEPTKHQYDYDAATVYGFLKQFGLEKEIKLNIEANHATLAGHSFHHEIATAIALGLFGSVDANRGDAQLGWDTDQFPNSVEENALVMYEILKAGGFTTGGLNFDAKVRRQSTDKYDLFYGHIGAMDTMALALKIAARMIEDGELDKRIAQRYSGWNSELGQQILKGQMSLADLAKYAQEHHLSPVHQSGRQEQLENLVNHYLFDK

As to `OC[C@@H](O)[C@H](O)[C@@H](O)CO` [xylitol], the “B. fragilis XI activity retained” value in test [1] is listed as “at least 30%”. The inhibition at 12500 µM on E. coli xylose isomerase is over 97%.

The values are drawn from patent US9365857B2, “Xylose isomerase and xylitol dehydrogenase combination for xylose fermentation to ethanol and B. fragilis xylose isomerase” (Archer Daniels Midland Company, priority 2010, dated 2016).
